Measured values from publication PMC10176470, “Engaging a Non-catalytic Cysteine Residue Drives Potent and Selective Inhibition of Caspase-6” (Journal of the American Chemical Society, 2023).

What was measured:
Experiment in all cases: SILAC proteomics / in-gel fluorescence, competition of probe 13-t labeling by 3a
[1] = target: proteins of HEK293T cells transiently overexpressing caspase-6 (Homo sapiens, UniProt P10809); settings: Comp; protein HSPD1 P10809
Protocol: (§1) Cells were lysed, and heavy and light SILAC lysates were combined in a 1:1 ratio and subjected to CuAAC reaction with azido-biotin to biotinylate probe-labeled proteins for subsequent capture on streptavidin-coated beads. Bead-bound proteins were split for analysis by in-gel fluorescence and tryptic digestion on-bead for LC–MS/MS analysis.
(§2) SILAC labeling and alkyne probe treatment: HEK293T cells were seeded into 8x 15 cm plates at
(§3) a density of 500,000 cells/plate. 4 of these plates were grown in light SILAC DMEM and 4 were
(§4) grown in heavy SILAC DMEM all containing 10% FBS and 4.5g/L glucose. The next day, all 8
(§5) plates were transfected with a pCMV6-Entry plasmid coding for caspase-6-myc-DDK lacking the
(§6) prodomain. After 24 hours, media was replaced with fresh SILAC growth media containing 4.5 g/L
(§7) glucose and 3% FBS. 24 hours later the plates were treated with probe and inhibitor for 1 hours as
(§8) follows: 2 of the light plates were treated with vehicle, 2 light plates and 2 heavy plates treated with
(§9) for 60 minutes. After treatment, media was removed, and cells were washed with 15 mL PBS for 5
(§10) minutes. Cells were then harvested by scraping in cold PBS and lysed in the presence of Roche
(§11) complete protease inhibitors. Lysates were clarified by centrifugation at 10,000xg for 10 minutes and
(§12) the protein in the supernatant was quantified by BCA assay.
(§13) Proteomics assay: 1 mg of each lysate was diluted to 2mg/ml in PBS with Roche complete protease
(§14) inhibitors. To this was added 0.1 mM biotin-azide, 1 mM tris(2-carboxyethyl)phosphine (TCEP), 0.1
(§15) mM Tris((1-benzyl-4-triazolyl)methyl)amine (TBTA) ligand, and 1 mM CuSO4 in a final volume of
(§16) 0.5 mL. The reaction was incubated at room temperature for 1 hour and was vortexed every 15
(§17) minutes. After 1 hour, proteins are precipitated and are pelleted by centrifuging at 16,000xg for 4
(§18) min at 4 °C. The supernatants were discarded, and the pellets were solubilized with 0.5 mL cold
(§19) The cold methanol wash was then repeated, and the washed
(§20) pellets were resuspended in 1 mL of 1.2% SDS and sonicated until clear. The samples were heat
(§21) denatured at 80-90 °C for 5 minutes and any insoluble particles were removed by centrifugation at
(§22) 6,500xg for 5 minutes. The 1 mL supernatant was transferred to a 15 mL conical tubes containing 5
(§23) mL of PBS and 150 µL of washed neutravidin beads were added. The samples were incubated for 2
(§24) hours at 4 °C while rotating, at which point the samples were warmed to resolubilize any precipitated
(§25) SDS. The beads were pelleted by centrifugation at 1400xg for 3 min and washed for 10 minutes with
(§26) the following solutions: 2x 1% NP-40, 2x PBS + 1 M NaCl, and 2x 50 mM ammonium bicarbonate
(§27) (ABC) + 2 M urea. The beads were then transferred to a 1.5 mL microcentrifuge tube using 2x250
(§28) µL 100 mM Tris pH 8.0 + 4 M Guanidium hydrochloride (final volume 500 µL).

[2] = target: proteins of HEK293T cells transiently overexpressing caspase-6 (Homo sapiens, UniProt P52272); settings: Comp; protein HNRNPM P52272
Protocol: as §1, §2, §3, §4, §5, §6, §7, §8, §9, §10, §11, §12, §13, §14, §15, §16, §17, §18, §19, §20, §21, §22, §23, §24, §25, §26, §27, §28

[3] = target: proteins of HEK293T cells transiently overexpressing caspase-6 (Homo sapiens, UniProt P13010); settings: Comp; protein XRCC5 P13010
Chain of proteins of HEK293T cells transiently overexpressing caspase-6 (Homo sapiens, UniProt P13010) (P13010 whole entry): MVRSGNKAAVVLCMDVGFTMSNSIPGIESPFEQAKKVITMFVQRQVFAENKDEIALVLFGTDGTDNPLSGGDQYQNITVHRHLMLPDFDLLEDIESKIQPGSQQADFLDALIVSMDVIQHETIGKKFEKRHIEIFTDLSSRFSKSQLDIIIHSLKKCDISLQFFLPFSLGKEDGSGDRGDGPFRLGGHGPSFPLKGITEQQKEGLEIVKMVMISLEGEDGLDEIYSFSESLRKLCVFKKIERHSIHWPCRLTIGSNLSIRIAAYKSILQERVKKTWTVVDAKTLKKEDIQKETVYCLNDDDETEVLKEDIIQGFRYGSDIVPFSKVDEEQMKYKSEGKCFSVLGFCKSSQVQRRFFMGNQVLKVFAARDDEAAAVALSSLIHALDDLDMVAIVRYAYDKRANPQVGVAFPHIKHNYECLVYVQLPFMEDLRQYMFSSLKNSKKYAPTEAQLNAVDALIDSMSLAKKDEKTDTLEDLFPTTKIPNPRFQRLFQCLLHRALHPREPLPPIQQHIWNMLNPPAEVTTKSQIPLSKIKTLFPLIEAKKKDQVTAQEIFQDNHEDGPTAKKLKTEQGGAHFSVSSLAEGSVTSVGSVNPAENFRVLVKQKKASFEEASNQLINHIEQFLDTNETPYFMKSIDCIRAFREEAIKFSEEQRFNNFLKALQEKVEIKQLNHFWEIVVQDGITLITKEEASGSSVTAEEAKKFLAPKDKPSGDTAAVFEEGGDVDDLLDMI
Protocol: as §1, §2, §3, §4, §5, §6, §7, §8, §9, §10, §11, §12, §13, §14, §15, §16, §17, §18, §19, §20, §21, §22, §23, §24, §25, §26, §27, §28

[4] = target: T1, proteins of HEK293T cells transiently overexpressing caspase-6 (Homo sapiens, UniProt P04075); settings: Comp; protein ALDOA P04075
T1 sequence (P04075 1-364): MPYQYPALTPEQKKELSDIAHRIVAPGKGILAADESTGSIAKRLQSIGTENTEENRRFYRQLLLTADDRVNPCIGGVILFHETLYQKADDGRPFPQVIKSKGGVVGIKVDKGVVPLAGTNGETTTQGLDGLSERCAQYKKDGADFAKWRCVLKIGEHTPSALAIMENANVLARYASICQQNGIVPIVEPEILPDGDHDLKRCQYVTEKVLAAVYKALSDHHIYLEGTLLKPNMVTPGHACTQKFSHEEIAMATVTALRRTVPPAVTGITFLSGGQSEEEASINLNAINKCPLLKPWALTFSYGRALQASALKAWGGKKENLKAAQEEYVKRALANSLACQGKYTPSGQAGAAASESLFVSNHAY
Protocol: as §1, §2, §3, §4, §5, §6, §7, §8, §9, §10, §11, §12, §13, §14, §15, §16, §17, §18, §19, §20, §21, §22, §23, §24, §25, §26, §27, §28

[5] = target: proteins of HEK293T cells transiently overexpressing caspase-6 (Homo sapiens, UniProt Q15185); settings: Comp; protein PTGES3 Q15185
Protocol: as §1, §2, §3, §4, §5, §6, §7, §8, §9, §10, §11, §12, §13, §14, §15, §16, §17, §18, §19, §20, §21, §22, §23, §24, §25, §26, §27, §28

[6] = target: proteins of HEK293T cells transiently overexpressing caspase-6 (Homo sapiens, UniProt P11021)
Chain of proteins of HEK293T cells transiently overexpressing caspase-6 (Homo sapiens, UniProt P11021) (P11021 19-654): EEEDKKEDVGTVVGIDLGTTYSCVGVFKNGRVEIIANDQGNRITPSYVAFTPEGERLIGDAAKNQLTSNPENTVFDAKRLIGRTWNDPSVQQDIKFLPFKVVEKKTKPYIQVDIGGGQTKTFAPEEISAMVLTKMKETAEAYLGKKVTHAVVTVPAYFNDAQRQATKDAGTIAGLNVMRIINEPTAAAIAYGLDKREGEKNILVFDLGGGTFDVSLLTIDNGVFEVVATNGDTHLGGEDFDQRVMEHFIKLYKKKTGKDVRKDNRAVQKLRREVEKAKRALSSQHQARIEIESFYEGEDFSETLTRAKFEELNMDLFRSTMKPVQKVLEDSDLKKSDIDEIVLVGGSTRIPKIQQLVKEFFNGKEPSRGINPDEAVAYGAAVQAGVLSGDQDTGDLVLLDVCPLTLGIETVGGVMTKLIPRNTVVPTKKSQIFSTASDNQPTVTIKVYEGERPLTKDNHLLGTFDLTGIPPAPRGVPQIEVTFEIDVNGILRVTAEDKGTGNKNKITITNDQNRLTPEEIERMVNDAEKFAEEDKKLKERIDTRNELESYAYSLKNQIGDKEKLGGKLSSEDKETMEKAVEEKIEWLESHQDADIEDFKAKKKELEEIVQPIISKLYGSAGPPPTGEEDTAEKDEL
Protocol: as §1, §2, §3, §4, §5, §6, §7, §8, §9, §10, §11, §12, §13, §14, §15, §16, §17, §18, §19, §20, §21, §22, §23, §24, §25, §26, §27, §28

[7] = target: proteins of HEK293T cells transiently overexpressing caspase-6 (Homo sapiens, UniProt P39748); settings: Comp; protein FEN1 P39748
Protocol: as §1, §2, §3, §4, §5, §6, §7, §8, §9, §10, §11, §12, §13, §14, §15, §16, §17, §18, §19, §20, §21, §22, §23, §24, §25, §26, §27, §28

[8] = target: proteins of HEK293T cells transiently overexpressing caspase-6 (Homo sapiens, UniProt Q07020); settings: Comp; protein RPL18 Q07020
Protocol: as §1, §2, §3, §4, §5, §6, §7, §8, §9, §10, §11, §12, §13, §14, §15, §16, §17, §18, §19, §20, §21, §22, §23, §24, §25, §26, §27, §28

[9] = target: proteins of HEK293T cells transiently overexpressing caspase-6 (Homo sapiens, UniProt P15880); settings: Comp; protein RPS2 P15880
Protocol: as §1, §2, §3, §4, §5, §6, §7, §8, §9, §10, §11, §12, §13, §14, §15, §16, §17, §18, §19, §20, §21, §22, §23, §24, §25, §26, §27, §28

[10] = target: proteins of HEK293T cells transiently overexpressing caspase-6 (Homo sapiens, UniProt P34897); settings: Comp; protein SHMT2 P34897
Protocol: as §1, §2, §3, §4, §5, §6, §7, §8, §9, §10, §11, §12, §13, §14, §15, §16, §17, §18, §19, §20, §21, §22, §23, §24, §25, §26, §27, §28

[11] = target: proteins of HEK293T cells transiently overexpressing caspase-6 (Homo sapiens, UniProt Q15029); settings: Comp; protein EFTUD2 Q15029
Chain of proteins of HEK293T cells transiently overexpressing caspase-6 (Homo sapiens, UniProt Q15029) (Q15029 whole entry): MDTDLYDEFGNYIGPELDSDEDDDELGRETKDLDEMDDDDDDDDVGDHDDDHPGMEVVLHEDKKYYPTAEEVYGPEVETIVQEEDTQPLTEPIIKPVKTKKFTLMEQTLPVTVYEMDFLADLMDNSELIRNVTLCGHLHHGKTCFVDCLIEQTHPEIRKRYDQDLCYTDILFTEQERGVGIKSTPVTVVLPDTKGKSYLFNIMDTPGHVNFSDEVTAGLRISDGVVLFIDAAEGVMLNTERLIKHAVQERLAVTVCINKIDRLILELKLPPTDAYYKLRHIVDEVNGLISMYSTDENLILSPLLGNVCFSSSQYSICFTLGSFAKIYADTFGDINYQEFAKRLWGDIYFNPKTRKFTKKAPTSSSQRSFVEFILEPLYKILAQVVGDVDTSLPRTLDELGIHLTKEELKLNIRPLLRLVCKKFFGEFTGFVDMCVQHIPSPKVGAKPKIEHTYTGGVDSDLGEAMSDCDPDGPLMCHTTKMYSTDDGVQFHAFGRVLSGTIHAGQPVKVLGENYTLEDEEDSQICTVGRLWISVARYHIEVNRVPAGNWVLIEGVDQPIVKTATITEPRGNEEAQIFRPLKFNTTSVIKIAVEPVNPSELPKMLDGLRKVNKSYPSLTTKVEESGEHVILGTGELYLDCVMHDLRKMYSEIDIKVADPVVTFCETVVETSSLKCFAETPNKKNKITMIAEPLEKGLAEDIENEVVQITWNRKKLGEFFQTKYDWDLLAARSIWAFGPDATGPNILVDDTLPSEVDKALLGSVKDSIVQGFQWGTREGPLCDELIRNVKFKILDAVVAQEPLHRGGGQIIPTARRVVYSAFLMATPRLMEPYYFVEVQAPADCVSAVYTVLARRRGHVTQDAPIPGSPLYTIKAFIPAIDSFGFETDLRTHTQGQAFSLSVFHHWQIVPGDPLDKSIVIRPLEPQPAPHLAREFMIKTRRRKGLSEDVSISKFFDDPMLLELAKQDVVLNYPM
Protocol: as §1, §2, §3, §4, §5, §6, §7, §8, §9, §10, §11, §12, §13, §14, §15, §16, §17, §18, §19, §20, §21, §22, §23, §24, §25, §26, §27, §28

[12] = target: proteins of HEK293T cells transiently overexpressing caspase-6 (Homo sapiens, UniProt P27635); settings: Comp; protein RPL10 P27635
Protocol: as §1, §2, §3, §4, §5, §6, §7, §8, §9, §10, §11, §12, §13, §14, §15, §16, §17, §18, §19, §20, §21, §22, §23, §24, §25, §26, §27, §28

[13] = target: proteins of HEK293T cells transiently overexpressing caspase-6 (Homo sapiens, UniProt P62917); settings: Comp; protein RPL8 P62917
Protocol: as §1, §2, §3, §4, §5, §6, §7, §8, §9, §10, §11, §12, §13, §14, §15, §16, §17, §18, §19, §20, §21, §22, §23, §24, §25, §26, §27, §28

[14] = target: proteins of HEK293T cells transiently overexpressing caspase-6 (Homo sapiens, UniProt Q04917); settings: Comp; protein YWHAH Q04917
Protocol: as §1, §2, §3, §4, §5, §6, §7, §8, §9, §10, §11, §12, §13, §14, §15, §16, §17, §18, §19, §20, §21, §22, §23, §24, §25, §26, §27, §28

[15] = target: proteins of HEK293T cells transiently overexpressing caspase-6 (Homo sapiens, UniProt P63244); settings: Comp; protein GNB2L1 P63244
Protocol: as §1, §2, §3, §4, §5, §6, §7, §8, §9, §10, §11, §12, §13, §14, §15, §16, §17, §18, §19, §20, §21, §22, §23, §24, §25, §26, §27, §28

[16] = target: proteins of HEK293T cells transiently overexpressing caspase-6 (Homo sapiens, UniProt P27708)
Chain of proteins of HEK293T cells transiently overexpressing caspase-6 (Homo sapiens, UniProt P27708) (P27708 whole entry): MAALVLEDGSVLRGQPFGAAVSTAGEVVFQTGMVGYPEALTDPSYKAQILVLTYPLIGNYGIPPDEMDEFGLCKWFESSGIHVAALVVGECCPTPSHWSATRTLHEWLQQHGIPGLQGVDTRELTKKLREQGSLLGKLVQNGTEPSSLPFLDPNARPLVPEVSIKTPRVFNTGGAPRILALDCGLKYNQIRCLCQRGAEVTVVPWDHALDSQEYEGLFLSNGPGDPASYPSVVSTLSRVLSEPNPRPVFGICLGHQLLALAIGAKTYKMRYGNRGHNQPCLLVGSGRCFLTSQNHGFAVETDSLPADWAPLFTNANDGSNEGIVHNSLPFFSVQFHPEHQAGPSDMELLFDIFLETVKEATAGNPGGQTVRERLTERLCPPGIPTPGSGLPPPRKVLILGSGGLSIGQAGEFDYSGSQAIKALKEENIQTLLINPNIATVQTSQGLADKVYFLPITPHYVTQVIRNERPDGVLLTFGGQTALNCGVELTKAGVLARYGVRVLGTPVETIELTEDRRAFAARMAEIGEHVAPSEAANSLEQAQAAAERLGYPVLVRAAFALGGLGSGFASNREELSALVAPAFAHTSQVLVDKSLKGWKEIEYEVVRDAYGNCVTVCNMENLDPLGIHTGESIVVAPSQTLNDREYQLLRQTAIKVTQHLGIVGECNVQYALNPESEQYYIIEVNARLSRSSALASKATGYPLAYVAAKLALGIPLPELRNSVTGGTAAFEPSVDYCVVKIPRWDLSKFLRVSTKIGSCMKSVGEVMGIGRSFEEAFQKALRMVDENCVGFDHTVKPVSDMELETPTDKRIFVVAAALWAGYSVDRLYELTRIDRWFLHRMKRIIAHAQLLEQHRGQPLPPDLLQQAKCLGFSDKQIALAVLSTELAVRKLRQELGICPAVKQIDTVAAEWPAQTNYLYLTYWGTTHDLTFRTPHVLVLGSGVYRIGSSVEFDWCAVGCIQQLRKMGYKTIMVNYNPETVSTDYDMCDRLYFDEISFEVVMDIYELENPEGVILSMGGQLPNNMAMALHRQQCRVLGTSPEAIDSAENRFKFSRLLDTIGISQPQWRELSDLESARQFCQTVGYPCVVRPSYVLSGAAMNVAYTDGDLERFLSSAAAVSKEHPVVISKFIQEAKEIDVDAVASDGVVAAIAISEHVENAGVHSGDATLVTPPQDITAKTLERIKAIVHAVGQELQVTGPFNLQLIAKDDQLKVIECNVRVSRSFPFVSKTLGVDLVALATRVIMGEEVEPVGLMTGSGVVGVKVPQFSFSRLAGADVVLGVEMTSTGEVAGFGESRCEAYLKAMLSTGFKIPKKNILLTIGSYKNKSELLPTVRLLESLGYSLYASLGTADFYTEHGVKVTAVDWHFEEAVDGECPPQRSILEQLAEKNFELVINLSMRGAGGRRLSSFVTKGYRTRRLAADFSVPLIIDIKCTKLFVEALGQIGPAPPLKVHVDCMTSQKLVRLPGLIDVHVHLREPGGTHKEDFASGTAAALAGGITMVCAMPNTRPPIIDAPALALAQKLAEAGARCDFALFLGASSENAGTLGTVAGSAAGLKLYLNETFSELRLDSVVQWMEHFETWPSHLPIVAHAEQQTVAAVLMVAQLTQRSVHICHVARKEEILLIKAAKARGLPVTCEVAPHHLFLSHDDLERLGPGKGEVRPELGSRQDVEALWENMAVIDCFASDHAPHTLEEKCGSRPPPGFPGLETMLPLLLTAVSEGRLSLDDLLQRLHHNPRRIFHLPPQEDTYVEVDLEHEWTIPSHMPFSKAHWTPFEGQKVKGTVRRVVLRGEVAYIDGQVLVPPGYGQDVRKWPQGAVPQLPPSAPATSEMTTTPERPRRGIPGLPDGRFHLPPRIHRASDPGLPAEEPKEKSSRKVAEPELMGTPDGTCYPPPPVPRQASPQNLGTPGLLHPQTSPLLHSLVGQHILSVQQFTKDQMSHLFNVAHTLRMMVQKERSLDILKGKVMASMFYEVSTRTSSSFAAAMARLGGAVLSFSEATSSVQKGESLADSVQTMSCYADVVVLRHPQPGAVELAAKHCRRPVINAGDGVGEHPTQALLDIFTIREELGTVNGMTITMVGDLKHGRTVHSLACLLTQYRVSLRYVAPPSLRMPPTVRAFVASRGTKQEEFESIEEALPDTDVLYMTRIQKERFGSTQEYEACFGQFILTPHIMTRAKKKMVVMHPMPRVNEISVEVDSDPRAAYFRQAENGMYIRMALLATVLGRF
Protocol: as §1, §2, §3, §4, §5, §6, §7, §8, §9, §10, §11, §12, §13, §14, §15, §16, §17, §18, §19, §20, §21, §22, §23, §24, §25, §26, §27, §28

[17] = target: proteins of HEK293T cells transiently overexpressing caspase-6 (Homo sapiens, UniProt Q86VP6); settings: Comp; protein CAND1 Q86VP6
Protocol: as §1, §2, §3, §4, §5, §6, §7, §8, §9, §10, §11, §12, §13, §14, §15, §16, §17, §18, §19, §20, §21, §22, §23, §24, §25, §26, §27, §28

[18] = target: proteins of HEK293T cells transiently overexpressing caspase-6 (Homo sapiens, UniProt P12277); settings: Comp; protein CKB P12277
Chain of proteins of HEK293T cells transiently overexpressing caspase-6 (Homo sapiens, UniProt P12277) (P12277 whole entry): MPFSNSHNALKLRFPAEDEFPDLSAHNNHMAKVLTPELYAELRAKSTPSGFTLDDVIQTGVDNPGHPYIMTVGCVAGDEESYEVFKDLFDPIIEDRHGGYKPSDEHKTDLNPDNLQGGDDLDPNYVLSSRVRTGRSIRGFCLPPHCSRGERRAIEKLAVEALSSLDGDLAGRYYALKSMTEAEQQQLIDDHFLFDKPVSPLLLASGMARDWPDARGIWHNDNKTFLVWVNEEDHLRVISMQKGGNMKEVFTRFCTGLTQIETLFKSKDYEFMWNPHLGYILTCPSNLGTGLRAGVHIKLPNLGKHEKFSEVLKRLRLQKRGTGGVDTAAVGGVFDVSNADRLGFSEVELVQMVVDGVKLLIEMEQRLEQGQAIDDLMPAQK
Protocol: as §1, §2, §3, §4, §5, §6, §7, §8, §9, §10, §11, §12, §13, §14, §15, §16, §17, §18, §19, §20, §21, §22, §23, §24, §25, §26, §27, §28

[19] = target: proteins of HEK293T cells transiently overexpressing caspase-6 (Homo sapiens, UniProt P27348); settings: Comp; protein YWHAQ P27348
Protocol: as §1, §2, §3, §4, §5, §6, §7, §8, §9, §10, §11, §12, §13, §14, §15, §16, §17, §18, §19, §20, §21, §22, §23, §24, §25, §26, §27, §28

[20] = protein HSPA5 (P11021), Exp Comp, analysis C6, p 0.000244, 13 peptides
[21] = protein CAD (P27708), Exp Comp, analysis C6, p 0.5000, 2 peptides

**Q.** Which results are given for `C=CS(=O)(=O)N1C[C@H](C(=O)Nc2ccc(OC(F)(F)F)cc2)C[C@@H](c2ccccc2)C1` [3a]?
**A.** enrich.exp.med [1]: 0.6402; enrich.exp.med [2]: 0.6442; enrich.exp.med [3]: 0.6006; enrich.exp.med [4]: 0.6768; enrich.exp.med [5]: 0.8422; enrich.exp.med ([6]; Comp, protein HSPA5 P11021): 1.086; enrich.exp.med.lin [6, 20]: 2.123; enrich.exp.med.log2 [6, 20]: 1.086; enrich.exp.med [7]: 0.6295; enrich.exp.med [8]: 0.6186; enrich.exp.med [9]: 0.7281; enrich.exp.med [10]: 0.5876; enrich.exp.med [11]: 0.5983; enrich.exp.med [12]: 0.809; enrich.exp.med [13]: 0.8074; enrich.exp.med [14]: 0.8526; enrich.exp.med [15]: 0.7266; enrich.exp.med ([16]; Comp, protein CAD P27708): 1.9642; enrich.exp.med.lin [16, 21]: 3.902; enrich.exp.med.log2 [16, 21]: 1.9642; enrich.exp.med [17]: 0.6553; enrich.exp.med [18]: 0.6631; enrich.exp.med [19]: 0.7747
